Test results from patent publication US6472348B1, “Pyridone derivatives and herbicides” (Kumiai Chemical Industry Co., Ltd., priority 1996, dated 2002).

Legend:
Type in all cases: in vivo
China jute (Ab) [1] = assay: Test Example 6: crop plant selectivity by upland field soil treatment (soybean), herbicidal effects; parameters: scale not given here; conditions: dose 6.3 g ai/10a, 21st day after application
Procedure: (§1) (Test on Crop Plant Selectivity by Upland Field Soil Treatment)
(§2) In a plastic pot (surface area: 600 cm^2) filled with sand, soybean (Gl), Diaitaria ciliaris (Di), green foxtail (Se), Johnsongrass (So), pale smartweed (Po), slender amaranth (Am), common lambsquarters (Ch) and China jute (Ab) were sown and covered with soil. […] The plants were then cultured in a green house, and the evaluation of the herbicidal effects and phytotoxicity was conducted on the 21st day after the application in accordance with the standards as identified in Table 47. Symbol—represents “not tested”.

green foxtail (Se) [2] = assay: as above; parameters: scale not given here; conditions: dose 6.3 g ai/10a, 21st day after application
Procedure: as §1, §2

pale smartweed (Po) [3] = assay: as above; parameters: scale not given here; conditions: dose 6.3 g ai/10a, 21st day after application
Procedure: as §1, §2

slender amaranth (Am) [4] = assay: as above; parameters: scale not given here; conditions: dose 6.3 g ai/10a, 21st day after application
Procedure: as §1, §2

[5] = tested on: common lambsquarters (Ch); assay: as above; parameters: scale not given here; conditions: dose 6.3 g ai/10a, 21st day after application
Procedure: as §1, §2

China jute (Ab) [6] = assay: Test Example 5: crop plant selectivity by upland field soil treatment (wheat), herbicidal effects; parameters: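 grade of growth control; 5 = at least 90%; 4 = 70 to 90%; 3 = 50 to 70%; 2 = 30 to 50%; 1 = 10 to 30%; 0 = under 10%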; conditions: dose 6.3 g ai/10a, 21st day after application
Procedure: as §1
(§3) In a plastic pot (surface area: 600 cm^2) filled with sand, wheat (Tr), Diaitaria ciliaris (Di), green foxtail (Se), pale smartweed (Po), slender amaranth (Am), common lambsquarters (Ch) and China jute (Ab) were sown and covered with soil. […] The plants were then cultured in a green house, and the evaluation of the herbicidal effects and phytotoxicity was conducted on the 21st day after the application in accordance with the standards as identified in Table 47. Symbol—represents “not tested”.

green foxtail (Se) [7] = assay: as above; parameters: scale not given here; conditions: dose 6.3 g ai/10a, 21st day after application
Procedure: as §1, §3

pale smartweed (Po) [8] = assay: as above; parameters: scale not given here; conditions: dose 6.3 g ai/10a, 21st day after application
Procedure: as §1, §3

slender amaranth (Am) [9] = assay: as above; parameters: scale not given here; conditions: dose 6.3 g ai/10a, 21st day after application
Procedure: as §1, §3

[10] = tested on: common lambsquarters (Ch); assay: as above; parameters: scale not given here; conditions: dose 6.3 g ai/10a, 21st day after application
Procedure: as §1, §3

China jute (Ab) [11] = assay: Test Example 4: crop plant selectivity by upland field soil treatment (cotton), herbicidal effects; parameters: scale not given here; conditions: dose 6.3 g ai/10 a, evaluated 21st day after application
Procedure: as §1
(§4) In a plastic pot (surface area: 600 cm^2) filled with sand, cotton (Go), Diaitaria ciliaris (Di), green foxtail (Se), pale smartweed (Po), slender amaranth (Am), common lambsquarters (Ch) and China jute (Ab) were sown and covered with soil. […] The plants were then cultured in a green house, and the evaluation of the herbicidal effects and phytotoxicity was conducted on the 21st day after the application in accordance with the standards as identified in Table 47. Symbol—represents “not tested”.

green foxtail (Se) [12] = assay: as above; parameters: scale not given here; conditions: dose 6.3 g ai/10 a, evaluated 21st day after application
Procedure: as §1, §4

pale smartweed (Po) [13] = assay: as above; parameters: scale not given here; conditions: dose 6.3 g ai/10 a, evaluated 21st day after application
Procedure: as §1, §4

slender amaranth (Am) [14] = assay: as above; parameters: scale not given here; conditions: dose 6.3 g ai/10 a, evaluated 21st day after application
Procedure: as §1, §4

[15] = tested on: common lambsquarters (Ch); assay: as above; parameters: scale not given here; conditions: dose 6.3 g ai/10 a, evaluated 21st day after application
Procedure: as §1, §4

bulrush (Sc) = assay: Test Example 1: herbicidal effects by paddy field soil treatment; conditions: 100 g of the active ingredient per 10 ares, 21st day after the application, index 0-5 of Table 47;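 also: grade of growth control; 5 = at least 90%; 4 = 70 to 90%; 3 = 50 to 70%; 2 = 30 to 50%; 1 = 10 to 30%; 0 = under 10%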
Summary of the method: (§5)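 Herbicidal effect was scored against a graded standard 21 days after treatment. Seeds were sown in puddled, leveled paddy soil flooded to 3 cm depth, and the active ingredient was applied at 100 g per 10 ares before greenhouse culture.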

barnyardgrass (Ec) [16] = assay: as above; conditions: 100 g of the active ingredient per 10 ares, 21st day after the application, index 0-5 of Table 47
Summary of the method: as §5

monochoria (Mo) = assay: as above; conditions: 100 g of the active ingredient per 10 ares, 21st day after the application, index 0-5 of Table 47;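 also: grade of growth control; 5 = at least 90%; 4 = 70 to 90%; 3 = 50 to 70%; 2 = 30 to 50%; 1 = 10 to 30%; 0 = under 10%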
Summary of the method: as §5

Diaitaria ciliaris (Di) = assay: Test Example 3: herbicidal effects by upland field foliage treatment; parameters: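 grade of growth control; 5 = at least 90%; 4 = 70 to 90%; 3 = 50 to 70%; 2 = 30 to 50%; 1 = 10 to 30%; 0 = under 10%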; conditions: 100 g of the active ingredient per 10 ares, evaluated on the 14th day after treatment
Summary of the method: (§6)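 Test plants had been raised from seed for 2 weeks in a greenhouse, in soil-covered sand pots of 120 cm^2, and were returned there after spraying.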

rice flatsedge (Ci) [17] = assay: as above; parameters: scale not given here; conditions: 100 g of the active ingredient per 10 ares, evaluated on the 14th day after treatment
Summary of the method: as §6

barnyardgrass (Ec) [18] = assay: as above; parameters: scale not given here; conditions: 100 g of the active ingredient per 10 ares, evaluated on the 14th day after treatment
Summary of the method: as §6

pale smartweed (Po) [19] = assay: as above; parameters: scale not given here; conditions: 100 g of the active ingredient per 10 ares, evaluated on the 14th day after treatment
Summary of the method: as §6

slender amaranth (Am) [20] = assay: as above; parameters: scale not given here; conditions: 100 g of the active ingredient per 10 ares, evaluated on the 14th day after treatment
Summary of the method: as §6

[21] = tested on: common lambsquarters (Ch); assay: as above; parameters: scale not given here; conditions: 100 g of the active ingredient per 10 ares, evaluated on the 14th day after treatment
Summary of the method: as §6

cotton (Go) = assay: Test Example 4: crop plant selectivity by upland field soil treatment (cotton), phytotoxicity; parameters: scale not given here; conditions: dose 6.3 g ai/10 a, evaluated 21st day after application
Procedure: as §1, §4

Digitaria ciliaris (Di) = assay: Test Example 2: herbicidal effects by upland field soil treatment; conditions: 100 g of the active ingredient per 10 ares, 21st day after the application, index 0-5 of Table 47;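 also: grade of growth control; 5 = at least 90%; 4 = 70 to 90%; 3 = 50 to 70%; 2 = 30 to 50%; 1 = 10 to 30%; 0 = under 10%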
Description: (§7) (Test on Herbicidal Effects by Upland Field Soil Treatment)

rice flatsedge (Ci) [22] = assay: as above; conditions: 100 g of the active ingredient per 10 ares, 21st day after the application, index 0-5 of Table 47
Description: as §7

barnyardgrass (Ec) [23] = assay: as above; conditions: 100 g of the active ingredient per 10 ares, 21st day after the application, index 0-5 of Table 47
Description: as §7

pale smartweed (Po) [24] = assay: as above; conditions: 100 g of the active ingredient per 10 ares, 21st day after the application, index 0-5 of Table 47
Description: as §7

slender amaranth (Am) [25] = assay: as above; conditions: 100 g of the active ingredient per 10 ares, 21st day after the application, index 0-5 of Table 47
Description: as §7

[26] = tested on: common lambsquarters (Ch); assay: as above; conditions: 100 g of the active ingredient per 10 ares, 21st day after the application, index 0-5 of Table 47
Description: as §7

wheat (Tr) = assay: Test Example 5: crop plant selectivity by upland field soil treatment (wheat), phytotoxicity; parameters: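 grade of crop injury; 5 = at least 90%; 4 = 70 to 90%; 3 = 50 to 70%; 2 = 30 to 50%; 1 = 10 to 30%; 0 = under 10%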; conditions: dose 6.3 g ai/10a, 21st day after application
Procedure: as §1, §3

soybean (Gl) = assay: Test Example 6: crop plant selectivity by upland field soil treatment (soybean), phytotoxicity; parameters: scale not given here; conditions: dose 6.3 g ai/10a, 21st day after application
Procedure: as §1, §2

C=C(C)COc1cc(-c2ccc(C(F)(F)F)n(C)c2=O)c(F)cc1Cl [1-151]
Herbicidal effects Ab (China jute (Ab) [1]): 5
Herbicidal effects Se (green foxtail (Se) [2]): 5
Herbicidal effects Po (pale smartweed (Po) [3]): 5
Herbicidal effects Am (slender amaranth (Am) [4]): 5
Herbicidal effects Ch [5]: 5
Herbicidal effects Ab (China jute (Ab) [6]): 5
Herbicidal effects Se (green foxtail (Se) [7]): 5
Herbicidal effects Po (pale smartweed (Po) [8]): 5
Herbicidal effects Am (slender amaranth (Am) [9]): 5
Herbicidal effects Ch [10]: 5
Herbicidal effects Ab (China jute (Ab) [11]): 5
Herbicidal effects Se (green foxtail (Se) [12]): 5
Herbicidal effects Po (pale smartweed (Po) [13]): 5
Herbicidal effects Am (slender amaranth (Am) [14]): 5
Herbicidal effects Ch [15]: 5
Herbicidal effects Sc (bulrush (Sc)): 5
Herbicidal effects Ec (barnyardgrass (Ec) [16]): 5
Herbicidal effects Mo (monochoria (Mo)): 5
Herbicidal effects Di (Diaitaria ciliaris (Di)): 5
Herbicidal effects Ci (rice flatsedge (Ci) [17]): 5
Herbicidal effects Ec (barnyardgrass (Ec) [18]): 5
Herbicidal effects Po (pale smartweed (Po) [19]): 5
Herbicidal effects Am (slender amaranth (Am) [20]): 5
Herbicidal effects Ch [21]: 5
Phytotoxicity Go (cotton (Go)): 1
Herbicidal effects Di (Digitaria ciliaris (Di)): 5
Herbicidal effects Ci (rice flatsedge (Ci) [22]): 5
Herbicidal effects Ec (barnyardgrass (Ec) [23]): 5
Herbicidal effects Po (pale smartweed (Po) [24]): 5
Herbicidal effects Am (slender amaranth (Am) [25]): 5
Herbicidal effects Ch [26]: 5
Phytotoxicity Tr (wheat (Tr)): 2
Phytotoxicity Gl (soybean (Gl)): 0
